Consider five compounds from US5708008A, “5-Substituted-3-(1,2,3,6-tetrahydropyridin-4-yl)-and 3-(piperidin-4-yl)-1H-indoles: new 5-HT1F agonists” (Eli Lilly and Company, priority 1996, dated 1998).

Data set [1] deals with protein extravasation induced by stimulation of the trigeminal ganglion. The experiment in a line: Inhibition of neuronal protein extravasation in dura after electrical stimulation of trigeminal ganglion. It is filed as in vivo, rat or guinea pig.
The conditions of data set [2]: cited from earlier work.
The subject of a further data set is migraine. The note with it: literature; cited from earlier work.
For data set [3] the following is noted: literature; cited from earlier work.
The test system of data set [4] is cephalic vascular smooth muscle. The note with it: literature; cited from earlier work.
Setting [5] is: Rattus norvegicus, iv, read-out: Inhibition of Protein Extravasation, i.v. ID50.

Read-outs that look alike come from different tables or passages of the source.

As for `Oc1ccc2[nH]cc(C3CCNCC3)c2c1` [Compound III], the ED50 in data set [1] (setting [5]) was 8.9e-06 µmol/kg.

As to `CCN(CC)C1CCc2cccc(Cl)c2C1` (centres unmarked) [Compound IV], the ED50 in data set [1] (setting [5]) stood at 0.00012 µmol/kg.

Regarding `Cn1cc(CCN2CCC(c3c[nH]c4ccc(F)cc34)CC2)cn1` [Compound II], the ED50 in data set [1] (Rattus norvegicus, iv; read-out: Inhibition of Protein Extravasation, i.v. ID50) was 8.6e-07 µmol/kg.

As for `CN(C)C1CCc2[nH]c3ccc(O)cc3c2C1` (centres unmarked) [Compound V], in data set [1] (setting [5]), the ED50 is 8.7e-06 µmol/kg.

For `CNS(=O)(=O)Cc1ccc2[nH]cc(CCN(C)C)c2c1` [Compound I], the ED50 in data set [1] (setting [5]) came to 2.6e-05 µmol/kg. Also, the side effects result in data set [2] (due to affinity for a number of serotonin receptor subtypes) was “undesirable side effects, particularly vasoconstriction”. Also, in data set [2] (in vivo), the bioavailability result is given as “low bioavailability” and the duration of action entry is listed as “relatively short duration of action”. The “efficacy in treatment of migraine” value in the data set on migraine was “effective in the treatment of migraine”. Further, the “crossing of the blood-brain barrier” value in data set [3] is “does not cross the blood-brain barrier”. Besides, the “contraction of cephalic vascular smooth muscle” value in data set [4] is recorded as “contract cephalic vascular smooth muscle”.
